Data taken from patent US12059420B2 (BRISTOL-MYERS SQUIBB COMPANY, priority 2018, dated 2024).
Counter-ions that a name gives are not always drawn.

These compounds were tested against T1, human IDO1 (Homo sapiens, UniProt P14902) (assay: IDO inhibition assay in HEK293 cells stably expressing human IDO1 (kynurenine production, Ehrlich reagent, absorbance 490 nm)). Settings: 20 hours incubation with compound, 500 nM reference standard = 100% inhibition, read-out: IDO1 HEK Human IC50.
T1 construct: expressed in transfected cells
T1 sequence (P14902 whole entry): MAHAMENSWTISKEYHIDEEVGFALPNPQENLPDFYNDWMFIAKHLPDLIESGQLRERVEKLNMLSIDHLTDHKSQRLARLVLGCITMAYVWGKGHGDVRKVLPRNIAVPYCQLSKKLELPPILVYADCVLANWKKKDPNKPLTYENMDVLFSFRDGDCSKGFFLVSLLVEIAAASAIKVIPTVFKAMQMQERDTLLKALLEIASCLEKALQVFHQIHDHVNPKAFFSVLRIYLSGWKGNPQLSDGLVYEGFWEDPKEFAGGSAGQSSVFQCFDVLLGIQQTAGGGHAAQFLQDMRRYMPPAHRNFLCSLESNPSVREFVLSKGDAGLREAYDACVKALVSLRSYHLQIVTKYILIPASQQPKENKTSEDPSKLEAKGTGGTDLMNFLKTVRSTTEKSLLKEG
Type: cell-based
Outline: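 Kynurenine output of stably IDO1-transfected HEK293 cells was measured by absorbance at 490 nm after mixing supernatant with 0.2% Ehrlich reagent, following TCA stop (0.2% final, 50° C., 30 min). Cells were incubated 20 hours with compound. Inhibition was scaled between DMSO and 500 nM reference standard.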
In the case of `CC(C)CN(Cc1ccccc1)c1cc(Nc2cccc(CO)n2)cc(-c2ccccc2-c2nnn[nH]2)n1` [Example 137, (6-((2-(2-(1H-tetrazol-5-yl)phenyl)-6-(benzyl(isobutyl)amino)pyridin-4-yl)amino)pyridin-2-yl)methanol], the IC50 is reported as 48.7 nM. With `COc1ccc(Nc2cc(-c3ccccc3-c3nnn[nH]3)nc(N(Cc3ccccc3)CC(C)C)c2)c(F)c1` [Example 186, 6-(2-(1H-tetrazol-5-yl)phenyl)-N2-benzyl-N4-(2-fluoro-4-methoxyphenyl)-N2-isobutylpyridine-2,4-diamine] the IC50 was 3.5 nM. With “1-(2-(2-(1H-tetrazol-5-yl)phenyl)-6- (benzyl(propyl)amino)pyridin-4-yl)-3-(4- ethoxyphenyl)urea [Example 272]” the IC50 was 129 nM. With `CCCN(Cc1ccc(F)cc1)c1cc(NC(=O)Cc2ccc(C)cc2)cc(-c2ccccc2-c2nnn[nH]2)n1` [Example 85, N-(2-(2-(1H-tetrazol-5-yl)phenyl)-6-((4-fluorobenzyl)(propyl)amino)pyridin-4-yl)-2-(p-tolyl)acetamide, TFA] the IC50 was 89.8 nM. Work on `Cc1ccc(CC(=O)Nc2cc(-c3ccccc3-c3nnn[nH]3)nc(N(Cc3ncccn3)CC(C)C)n2)cc1` [Example 92, N-(6-(2-(1H-tetrazol-5-yl)phenyl)-2-(isobutyl(pyrimidin-2-ylmethyl)amino)pyrimidin-4-yl)-2-(p-tolyl)acetamide] yielded an IC50 of 146 nM. `CC(C)CN(Cc1ccccc1)c1cc(Nc2ncc(C(C)C)cn2)cc(-c2ccccc2-c2nnn[nH]2)n1` [Example 158, 6-(2-(1H-tetrazol-5-yl)phenyl)-N2-benzyl-N2-isobutyl-N4-(5-isopropylpyrimidin-2-yl)pyridine-2,4-diamine] showed an IC50 of 444 nM. `Cc1ccc(Nc2cc(-c3ccccc3-c3nnn[nH]3)nc(N(Cc3ccccc3)CC(C)C)c2)cc1` [Example 148, 6-(2-(1H-tetrazol-5-yl)phenyl)-N2-benzyl-N2-isobutyl-N4-(p-tolyl)pyridine-2,4-diamine] was tested, and the IC50 was 4.8 nM. Work on `CCCN(Cc1ccccc1)c1cc(NC(=O)Cc2ccc(C)cc2)cc(-c2ccccc2-c2nc(=O)o[nH]2)n1` [Example 28, N-(2-(benzyl (propyl)amino)-6-(2-(5-oxo-2,5-dihydro-1,2,4-oxadiazol-3-yl)phenyl)pyridin-4-yl)-2-(p-tolyl)acetamide] yielded an IC50 of 80.1 nM. With `CCCN(Cc1ccccc1)c1nc(NC(=O)Cc2ccc(C)cc2)cc(-c2ccccc2-c2nnn[nH]2)n1` [Example 23, N-(6-(2-(1H-tetrazol-5-yl)phenyl)-2-(benzyl(propyl)amino)pyrimidin-4-yl)-2-(p-tolyl)acetamide] the IC50 was 16.2 nM. `CCCN(Cc1ccccc1)c1cc(NC(=O)Nc2ccc(Cl)cc2F)cc(-c2ccccc2-c2noc(=O)[nH]2)n1` [Example 12, 1-(2-(benzyl(propyl)amino)-6-(2-(5-oxo-4,5-dihydro-1,2,4-oxadiazol-3-yl)phenyl)pyridin-4-yl)-3-(4-chloro-2-fluorophenyl)urea] gave an IC50 of 7 nM. For `CCCN(Cc1ccccc1)c1cc(NC(=O)Nc2ccccc2C(F)(F)F)cc(-c2ccccc2-c2nnn[nH]2)n1` [Example 36, 1-(2-(2-(1H-tetrazol-5-yl)phenyl)-6-(benzyl(propyl)amino)pyridin-4-yl)-3-(2-(trifluoromethyl)phenyl)urea], the IC50 was 205 nM. `CCC(CC(=O)O)c1cc(Nc2ccc(Cl)cc2)cc(N(Cc2ccccc2)CC(C)C)n1` (racemic) [Example 245, 3-(6-(benzyl(isobutyl)amino)-4-((4-chlorophenyl)amino)pyridin-2-yl)pentanoic acid] was tested, and the IC50 was 47.5 nM. For `CC(C)CN(Cc1ccccc1)c1cc(Nc2cccc(C(F)F)n2)cc(-c2ccccc2-c2nnn[nH]2)n1` [Example 195, 6-(2-(1H-tetrazol-5-yl)phenyl)-N2-benzyl-N4-(6-(difluoromethyl)pyridin-2-yl)-N2-isobutylpyridine-2,4-diamine], the IC50 was 19.8 nM. For `CCCN(Cc1ccccc1)c1cc(NC(=O)Nc2ccc(C)nn2)cc(-c2ccccc2-c2nnn[nH]2)n1` [Example 37, 1-(2-(2-(1H-tetrazol-5-yl)phenyl)-6-(benzyl(propyl)amino)pyridin-4-yl)-3-(6-methyl-pyridazin-3-yl) urea], the IC50 was 3140 nM. `CCCN(Cc1ccccc1)c1cc(NC(=O)Nc2ccc(C(F)(F)F)cc2)cc(-c2ccccc2-c2nnn[nH]2)n1` [Example 289, 1-(2-(2-(1H-Tetrazol-5-yl)phenyl)-6-(benzyl(propyl)amino)pyridin-4-yl)-3-(4-(trifluoromethyl)phenyl)urea] was tested, and the IC50 was 41.2 nM. In the case of `CCCN(Cc1ccccc1)c1cc(NC(=O)Nc2cc(C)ccn2)cc(-c2ccccc2-c2nnn[nH]2)n1` [Example 299], the IC50 is reported as 845 nM. `CCC(CC(=O)O)c1cc(NC(=O)Nc2ccc(C)cc2)cc(N(Cc2ccccc2)CC(C)C)n1` (single isomer, unassigned) [Example 244, 3-(6-(benzyl(isobutyl)amino)-4-(3-(p-tolyl)ureido)pyridin-2-yl)pentanoic acid] gave an IC50 of 109 nM. In the case of `CC(C)CN(Cc1ccccc1)c1cc(Nc2cc(F)ccc2C(=O)O)cc(-c2ccccc2-c2nnn[nH]2)n1` [Example 185, 2-((2-(2-(1H-tetrazol-5-yl)phenyl)-6-(benzyl(isobutyl)amino)pyridin-4-yl)amino)-4-fluorobenzoic acid], the IC50 is reported as 2740 nM. `CCCN(Cc1ccccc1)c1cc(NC(=O)Cc2ccc(C#N)cc2)cc(-c2ccccc2-c2nn[nH]n2)n1` [Example 227, N-(2-(2-(2H-tetrazol-5-yl)phenyl)-6-(benzyl(propyl)amino)pyridin-4-yl)-2-(4-cyanophenyl)acetamide] was tested, and the IC50 was 3350 nM. Compound `CC(C)CN(Cc1ccc(F)cc1)c1cc(Nc2ccc(F)cc2)cc(-c2ccccc2-c2nnn[nH]2)n1` [Example 39, 6-(2-(1H-tetrazol-5-yl)phenyl)-N2-(4-fluorobenzyl)-N4-(4-fluorophenyl)-N2-isobutylpyridine-2,4-diamine] has an IC50 of 2.4 nM. `Cc1ccc(NC(=O)Nc2cc(-c3ccccc3-c3nnn[nH]3)nc(N3CCc4ccccc4C3)n2)cc1` [Example 93, 1-(6-(2-(1H-tetrazol-5-yl)phenyl)-2-(3,4-dihydroisoquinolin-2(1H)-yl)pyrimidin-4-yl)-3-(p-tolyl)urea] gave an IC50 of 3170 nM. `CCCN(Cc1ccccc1)c1cc(NC(=O)Cc2cc(C)no2)cc(-c2ccccc2-c2nnn[nH]2)n1` [Example 296] showed an IC50 of 797 nM. `Cc1nc2ccc(Nc3cc(-c4ccccc4-c4nnn[nH]4)nc(N(Cc4ccccc4)CC(C)C)c3)cc2s1` [Example 161, 6-(2-(1H-tetrazol-5-yl)phenyl)-N2-benzyl-N2-isobutyl-N4-(2-methylbenzo[d]thiazol-6-yl)pyridine-2,4-diamine] gave an IC50 of 2.1 nM. In the case of `CCCN(Cc1ccccc1)c1cc(NC(=O)Nc2ccc(C)cc2)cc(-c2ccccc2S(=O)(=O)NC(=O)c2ccccc2)n1` [Example 32, N-((2-(6-(benzyl (propyl)amino)-4-(3-(p-tolyl)ureido)pyridin-2-yl)phenyl)sulfonyl) benzamide], the IC50 is reported as 4100 nM. Compound `CC(C)CN(Cc1ccccc1)c1cc(NC(=O)Nc2ccc(Cl)cc2Cl)cc(-c2ccccc2-c2nnn[nH]2)n1` [Example 238, 1-(2-(2-(1H-tetrazol-5-yl)phenyl)-6-(benzyl(isobutyl)amino)pyridin-4-yl)-3-(2,4-dichlorophenyl)urea] has an IC50 of 26.3 nM. With `CCN(Cc1ccccc1)c1cc(NC(=O)Cc2cccnc2)cc(-c2ccccc2-c2nnn[nH]2)n1` [Example 284] the IC50 was 1620 nM. `CC(C)CN(Cc1ccc(F)cc1)c1cc(Nc2nc3ccccc3s2)cc(-c2ccccc2-c2nnn[nH]2)n1` [Example 43, 6-(2-(1H-tetrazol-5-yl)phenyl)-N4-(benzo[d]thiazol-2-yl)-N2-(4-fluorobenzyl)-N2-isobutylpyridine-2,4-diamine, TFA] showed an IC50 of 31.2 nM. `CCCN(Cc1ccccc1)c1cc(NC(=O)Nc2ccc(C)cc2)cc(-c2ccccc2-c2nsc(=O)[nH]2)n1` [Example 14, 1-(2-(benzyl(propyl)amino)-6-(2-(5-oxo-4,5-dihydro-1,2,4-thiadiazol-3-yl)phenyl)pyridin-4-yl)-3-(p-tolyl)urea] showed an IC50 of 181 nM. Compound `Cc1ccc(CC(=O)Nc2cc(-c3ccccc3-c3nnn[nH]3)nc(N3CCN(Cc4ccccc4)C(=O)C3)n2)cc1` [Example 97, N-(6-(2-(1H-tetrazol-5-yl)phenyl)-2-(4-benzyl-3-oxopiperazin-1-yl)pyrimidin-4-yl)-2-(p-tolyl)acetamide] has an IC50 of 1150 nM. `CCCN(Cc1ccccc1)c1cc(Nc2ccn(C)n2)cc(-c2ccccc2-c2nnn[nH]2)n1` [Example 61, 6-(2-(1H-tetrazol-5-yl)phenyl)-N2-benzyl-N4-(1-methyl-1H-pyrazol-3-yl)-N2-propylpyridine-2,4-diamine] showed an IC50 of 446 nM. `CC(C)CN(Cc1ccccc1)c1cc(NC(=O)Nc2ccc(F)cc2)cc(-c2ccccc2-c2nnn[nH]2)n1` [Example 69, 1-(2-(2-(1H-tetrazol-5-yl)phenyl)-6-(benzyl(isobutyl)amino)pyridin-4-yl)-3-(4-fluorophenyl)urea, TFA] gave an IC50 of 134 nM. With `Cc1ccc(Nc2cc(-c3ccccc3-c3nnn[nH]3)nc(N(Cc3ccccc3)CC(C)C)c2)nn1` [Example 157, 6-(2-(1H-tetrazol-5-yl)phenyl)-N2-benzyl-N2-isobutyl-N4-(6-methylpyridazin-3-yl)pyridine-2,4-diamine] the IC50 was 540 nM. `Cc1cc(F)ccc1Nc1cc(-c2ccccc2-c2nnn[nH]2)nc(N(Cc2ccccc2)CC(C)C)c1` [Example 175, 6-(2-(1H-tetrazol-5-yl)phenyl)-N2-benzyl-N4-(4-fluoro-2-methylphenyl)-N2-isobutylpyridine-2,4-diamine] gave an IC50 of 54.9 nM. Work on `CCCN(Cc1ccccc1)c1cc(NC(=O)Nc2ccc(C)cc2)cc(-c2ccccc2C(=O)NS(C)(=O)=O)n1` [Example 24, 2-(6-(benzyl(propyl)amino)-4-(3-(p-tolyl)ureido)pyridin-2-yl)-N-(methylsulfonyl)benzamide] yielded an IC50 of 256 nM. Compound `COc1ccc(Nc2cc(-c3ccccc3-c3nnn[nH]3)nc(N(Cc3ccccc3)CC(C)C)c2)cc1C(N)=O` [Example 198, 5-((2-(2-(1H-tetrazol-5-yl)phenyl)-6-(benzyl(isobutyl)amino)pyridin-4-yl)amino)-2-methoxybenzamide] has an IC50 of 2960 nM.
